{
  "source": "paper PMC8154229",
  "about": "(ACS Omega, 2021)",
  "biological_target": "human H1R (Homo sapiens, UniProt P35367)",
  "sequence (P35367 whole entry)": "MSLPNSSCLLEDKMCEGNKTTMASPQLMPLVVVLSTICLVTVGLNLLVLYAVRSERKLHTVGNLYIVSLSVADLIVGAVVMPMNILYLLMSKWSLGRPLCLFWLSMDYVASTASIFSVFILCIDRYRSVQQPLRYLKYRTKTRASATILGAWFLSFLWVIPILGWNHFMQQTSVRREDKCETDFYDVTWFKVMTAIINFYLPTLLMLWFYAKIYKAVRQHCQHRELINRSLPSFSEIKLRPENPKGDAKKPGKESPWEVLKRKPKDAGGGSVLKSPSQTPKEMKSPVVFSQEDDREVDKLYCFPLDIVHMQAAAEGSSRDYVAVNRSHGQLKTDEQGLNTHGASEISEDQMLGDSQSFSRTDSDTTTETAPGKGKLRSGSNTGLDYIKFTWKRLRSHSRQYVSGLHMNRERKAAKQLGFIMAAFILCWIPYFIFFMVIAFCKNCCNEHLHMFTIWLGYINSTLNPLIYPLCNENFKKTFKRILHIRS",
  "assay_type": "binding",
  "conditions": "between 13 and 17",
  "data": [
    {"smiles": "CN1CCC(=C2c3ccccc3CCc3ccccc32)CC1", "note": "[Compound 13, 4-(10,11-Dihydro-5H-dibenzo[a,d][7]annulen-5-ylidene)-1-methylpiperidine]", "values": [
      {"measurement": "fold difference in affinity", "value": 100, "unit": "fold"}
    ]}
  ]
}
